According to US20070208166A1, “Tao Kinase Modulators And Method Of Use” (Exelixis, Inc., priority 2003, published 2007):

Assays:
Type in all cases: biochemical
TAO = biological target: T1, TAO (Homo sapiens, UniProt Q9UL54); assay: TAO Luciferase-Coupled Chemiluminescent Kinase assay (LCCA); conditions: 2 μM ATP, 10 μM MBP, 12 nM TAO, 2 hours; read-out: TAO inhibition IC50
T1 sequence (Q9UL54 1-1235): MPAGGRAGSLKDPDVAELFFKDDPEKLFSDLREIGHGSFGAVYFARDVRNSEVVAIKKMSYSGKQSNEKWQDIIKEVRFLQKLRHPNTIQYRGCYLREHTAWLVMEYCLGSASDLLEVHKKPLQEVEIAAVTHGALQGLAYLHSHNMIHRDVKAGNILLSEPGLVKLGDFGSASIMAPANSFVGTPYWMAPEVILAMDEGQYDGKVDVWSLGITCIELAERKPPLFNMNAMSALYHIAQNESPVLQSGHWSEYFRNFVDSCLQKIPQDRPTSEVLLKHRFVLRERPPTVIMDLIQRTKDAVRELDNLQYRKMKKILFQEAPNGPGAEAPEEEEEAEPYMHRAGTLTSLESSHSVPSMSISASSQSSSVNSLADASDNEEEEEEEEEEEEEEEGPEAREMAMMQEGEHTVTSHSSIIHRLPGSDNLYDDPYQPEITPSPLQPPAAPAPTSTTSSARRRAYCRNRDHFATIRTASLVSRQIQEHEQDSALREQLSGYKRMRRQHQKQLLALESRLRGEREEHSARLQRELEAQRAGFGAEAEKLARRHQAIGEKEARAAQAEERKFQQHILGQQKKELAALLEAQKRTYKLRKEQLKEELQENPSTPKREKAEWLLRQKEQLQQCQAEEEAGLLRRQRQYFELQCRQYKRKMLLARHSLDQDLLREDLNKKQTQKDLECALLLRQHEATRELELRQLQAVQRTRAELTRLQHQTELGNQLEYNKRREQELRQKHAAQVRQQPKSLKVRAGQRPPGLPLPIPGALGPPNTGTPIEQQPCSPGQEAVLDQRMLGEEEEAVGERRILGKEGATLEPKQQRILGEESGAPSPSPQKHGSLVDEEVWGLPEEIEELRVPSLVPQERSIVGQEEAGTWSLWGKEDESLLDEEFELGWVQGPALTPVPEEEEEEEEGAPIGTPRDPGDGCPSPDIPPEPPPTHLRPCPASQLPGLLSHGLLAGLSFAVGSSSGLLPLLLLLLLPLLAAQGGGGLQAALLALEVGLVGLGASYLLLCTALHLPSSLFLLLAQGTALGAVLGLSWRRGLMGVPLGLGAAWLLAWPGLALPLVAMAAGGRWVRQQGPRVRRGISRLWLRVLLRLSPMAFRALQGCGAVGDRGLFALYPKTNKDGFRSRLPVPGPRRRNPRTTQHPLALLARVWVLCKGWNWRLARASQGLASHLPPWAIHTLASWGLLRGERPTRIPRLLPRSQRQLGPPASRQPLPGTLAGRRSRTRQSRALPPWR

JIK = biological target: T2, JIK (Homo sapiens, UniProt Q9H2K8); assay: JIK Luciferase-Coupled Chemiluminescent Kinase assay (LCCA); conditions: 2 μM ATP, 10 μM MBP, 6 nM JIK, 2 hours; read-out: JIK inhibition IC50
T2 construct: 6 nM JIK (baculovirus expressed human KIAA 1361 kinase domain2-318); made in house
T2 sequence (Q9H2K8 2-318): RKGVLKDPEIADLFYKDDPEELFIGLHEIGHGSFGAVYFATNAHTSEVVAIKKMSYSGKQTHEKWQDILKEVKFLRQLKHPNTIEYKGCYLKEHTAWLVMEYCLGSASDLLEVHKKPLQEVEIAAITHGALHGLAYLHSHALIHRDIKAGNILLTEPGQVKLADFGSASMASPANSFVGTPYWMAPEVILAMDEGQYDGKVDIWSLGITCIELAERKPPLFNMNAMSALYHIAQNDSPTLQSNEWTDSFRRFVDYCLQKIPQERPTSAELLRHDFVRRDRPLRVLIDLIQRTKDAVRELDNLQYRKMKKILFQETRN
Procedure, shortened: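 Baculovirus-expressed human KIAA 1361 kinase domain 2-318 at 6 nM, with 10 μM MBP and 2 μM ATP in Tris pH 7.5 with Mg/Mn, ran 2 h at ambient temperature. Remaining ATP was read by luciferase chemiluminescence. IC50 comes from a 10-concentration four-parameter fit.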

[1] = biological target: T3, KIAA 1361 (baculovirus expressed human KIAA 1361 kinase domain 2-322) (Homo sapiens, UniProt Q7L7X3); assay: KIAA 1361 Luciferase-Coupled Chemiluminescent Kinase assay (LCCA); conditions: 2 μM ATP, 10 μM MBP, 12 nM KIAA 1361, 2 hours; read-out: KIAA1361 inhibition IC50
T3 construct: human KIAA 1361 kinase domain 2-322; made in house
T3 sequence (Q7L7X3 2-322): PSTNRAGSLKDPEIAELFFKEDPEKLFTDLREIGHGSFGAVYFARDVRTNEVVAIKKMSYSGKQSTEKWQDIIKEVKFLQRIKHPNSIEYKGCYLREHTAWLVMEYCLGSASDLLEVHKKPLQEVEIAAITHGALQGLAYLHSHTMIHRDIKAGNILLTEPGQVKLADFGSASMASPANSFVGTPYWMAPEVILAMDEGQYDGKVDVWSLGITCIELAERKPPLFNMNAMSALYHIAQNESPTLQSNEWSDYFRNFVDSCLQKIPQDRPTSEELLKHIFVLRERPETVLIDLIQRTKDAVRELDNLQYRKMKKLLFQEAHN
Procedure, shortened: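 KIAA 1361 kinase domain 2-322 (baculovirus, 12 nM) with 2 μM ATP and 10 μM MBP in Tris pH 7.5, MgCl2, MnCl2; 2 h, ambient. Remaining ATP read by luciferase chemiluminescence; 10 concentrations, IC50 by four-parameter fit.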

IC50 (TAO) [nM]	IC50 (JIK) [nM]	IC50 [1] [nM]	SMILES
50 to 500	< 50	50 to 500	O=C(CC(NC(=O)c1ccccc1)c1ccccc1)NCC(=O)Nc1nc2ccccc2s1 (stereo not drawn) [Entry 90, N-(3-{[2-(1,3-benzothiazol-2-ylamino)-2-oxoethyl]amino}-3-oxo-1-phenylpropyl)benzamide]
> 5000	> 5000	> 5000	O=C(CNC(=O)c1cnc2ccccc2c1)Nc1cccc2c1CCCC2 [Entry 87, N-[2-oxo-2-(5,6,7,8-tetrahydronaphthalen-1-ylamino)ethyl]quinoline-3-carboxamide]
> 5000	500 to 5000	> 5000	O=C(CNC(=O)c1ccc2c(c1)CCCC2)NC1CCCc2ccccc21 (stereo not drawn) [Entry 82, N-[2-oxo-2-(1,2,3,4-tetrahydronaphthalen-1-ylamino)ethyl]-5,6,7,8-tetrahydronaphthalene-2-carboxamide]
> 5000	> 5000	> 5000	O=C(CC(NC(=O)c1ccccc1)c1ccccc1)NCC(=O)NC1CCCc2ccccc21 (stereo not drawn) [Entry 81, N-(3-oxo-3-{[2-oxo-2-(1,2,3,4-tetrahydronaphthalen-1-ylamino)ethyl]amino}-1-phenylpropyl)benzamide]
50 to 500	< 50	50 to 500	O=C(CC(NC(=O)c1ccccc1)c1ccccc1)NCC(=O)Nc1nc2ccc(O)cc2s1 (stereo not drawn) [Entry 98, N-[3-({2-[(6-hydroxy-1,3-benzothiazol-2-yl)amino]-2-oxoethyl}amino)-3-oxo-1-phenylpropyl]benzamide]

Second part, the compound before the results:

SMILES	IC50 (TAO) [nM]	IC50 (JIK) [nM]	IC50 [1] [nM]
O=C(CNC(=O)NCCc1ccc(-c2ccccc2)cc1)NC1CCCc2ccccc21 (stereo not drawn) [Entry 72, N˜2˜-{[(2-biphenyl-4-ylethyl)amino]carbonyl}-N-(1,2,3,4-tetrahydronaphthalen-1-yl)glycinamide]	> 5000	> 5000	> 5000
CCCCc1ccc(NC(=O)N2CCC[C@H]2C(=O)NCc2ccc(Cl)c(Cl)c2)cc1 [Entry 22, (2S)-N˜-1˜-(4-butylphenyl)-N˜2˜-[(3,4-dichlorophenyl)methyl]pyrrolidine-1,2-dicarboxamide]	500 to 5000	50 to 500	50 to 500
CCc1ccc(-c2ccc(C(=O)NCC(=O)N3CCc4ccccc4C3)cc2)cc1 [Entry 60, N-[2-(3,4-dihydroisoquinolin-2(1H)-yl)-2-oxoethyl]-4′-ethylbiphenyl-4-carboxamide]	> 5000	> 5000	> 5000
COc1ccc(/C=C/C(=O)N[C@@H](COCc2ccccc2)C(=O)NC(c2ccccc2)c2ccccc2)cc1OC [Entry 30, N˜2˜-{(2E)-3-[3,4-bis(methyloxy)phenyl]prop-2-enoyl}-N-(diphenylmethyl)-O-(phenylmethyl)serinamide]	> 5000	50 to 500	500 to 5000
CCc1cccc(NC(=O)NCC(=O)NC2CCCc3ccccc32)c1 (stereo not drawn) [Entry 48, N˜2˜-{[(3-ethylphenyl)amino]carbonyl}-N-(1,2,3,4-tetrahydronaphthalen-1-yl)glycinamide]	> 5000	> 5000	> 5000
CCc1ccc(-c2ccc(C(=O)NCC(=O)NC3CCCc4ccccc43)cc2)cc1 (stereo not drawn) [Entry 4, 4′-ethyl-N-[2-oxo-2-(1,2,3,4-tetrahydronaphthalen-1-ylamino)ethyl]biphenyl-4-carboxamide]	< 50	< 50	< 50
O=C(CNC(=O)c1ccc(-c2ccccc2)cc1)NC1CCCc2ccccc21 (stereo not drawn) [Entry 43, N-[2-oxo-2-(1,2,3,4-tetrahydronaphthalen-1-ylamino)ethyl]biphenyl-4-carboxamide]	< 50	< 50	< 50
CCCCCc1ccc(C(=O)NCC(=O)NC2CCCc3ccccc32)cc1 (stereo not drawn) [Entry 11, N-[2-oxo-2-(1,2,3,4-tetrahydronaphthalen-1-ylamino)ethyl]-4-pentylbenzamide]	50 to 500	50 to 500	50 to 500
O=C(COc1ccc(Br)cc1)NCC(=O)NC1CCCc2ccccc21 (stereo not drawn) [Entry 3, N˜2˜-{[(4-bromophenyl)oxy]acetyl}-N-(1,2,3,4-tetrahydronaphthalen-1-yl)glycinamide]	50 to 500	< 50	50 to 500
